The values below come from patent US20260234150A1, “COMPOUND FOR INHIBITING NLRP3, PREPARATION METHOD, AND USE” (DOVETREE MEDICINES UNUS, INC., priority 2023, published 2026).

The structures appear in SMILES notation. Like-named read-outs stand apart in the source and are kept apart here. Some results are limits rather than exact numbers.

Data set [1] concerns the target T1, His6-Flag-TEV-NLRP3 (134-1036) (Homo sapiens, UniProt Q96P20).
T1 construct: fused on or other part: N-terminal His6 tag, Flag tag and TEV cleavage site
The data set is described as follows: NLRP3 fluorescence polarization (FP) binding assay, competition with probe NP3-301. As to conditions: competition with NP3-301 for binding to NLRP3 (134-1036), 30 nM protein. An outline of the steps:
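Compound was preincubated 60 min at room temperature with NLRP3 protein (30 nM final) in 50 mM Hepes pH 7.4, 150 mM NaCl, 2.5 mM MgCl2, 1 mM TCEP, 100 μM ATP. Probe NP3-301 (0.5 nM final) was then added for 30 min. Fluorescence polarization was read at ex 485/em 535 nm, and IC50 was obtained by four-parameter logistic fit.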

Another data set concerns the target T2, CYP2C19 (Homo sapiens, UniProt P33261).
T2 construct: (CYP2C19 uses 0.2 mg/mL liver microsome); tissue BioIVT IHG; host or cells: human liver microsomes
Description: CYP450 enzyme inhibition in human liver microsomes, CYP2C19. The format is in vitro ADME. The following applies: substrate Mephenytoin, read-out: Inhibitory activity IC50 (μM) CYP2C19. As for the experimental part: (§1) This experiment incubates the compound, liver microsomes and different CYP subtype enzyme substrates in a 37° C. water bath to measure the amount of substrate metabolites produced and evaluate the inhibitory effect of the compound of the present disclosure on CYP enzymes based on the IC50 value.
(§2) i. The compound was diluted to 0, 0.02 mM, 0.06 mM, 0.2 mM, 0.6 mM, 2 mM and 6 mM concentrations with DMSO (Aladdin, catalog number: D103273-500 ml).
(§3) ii. The enzyme substrate solutions of each CYP subtype were prepared by phosphate buffer (sigma: V900050-500G).
(§4) iii. Sample incubation. […] After centrifugation at 4000 rpm and 4° C. for 40 min, the supernatant was diluted with pure water according to the response of the substrate metabolites and then detected by UPLC-MS/MS (Sciex, Q-Trap 4500). […]
(§5) The inhibitory effect of the compound on each P450 enzyme in human liver microsomes was calculated as the percentage of reduced metabolite formation compared with the non-inhibitory control (i.e., blank DMSO). The IC50 value for each P450 enzyme in human liver microsomes was calculated using the logarithm of the remaining activity and the inhibitor concentration using Graphpad Prism software. […]
For orientation: Liver microsomes are vesicles of endoplasmic reticulum, rich in cytochrome P450 enzymes.

Another data set deals with T3, CYP2D6 (Homo sapiens, UniProt P10635).
T3 construct: 0.05 mg/mL liver microsome (BioIVT, IHG) phosphate buffer solution; tissue BioIVT IHG; host or cells: human liver microsomes
The data set is described as follows: CYP450 enzyme inhibition in human liver microsomes, CYP2D6. The format is in vitro ADME. The following applies: substrate Dextromethorphan, read-out: Inhibitory activity IC50 (μM) CYP2D6. As for the experimental part:
as §1, §2, §3, §4, §5

Data set [2] in a line: Pharmacokinetic evaluation in mice. In kind it is in vivo. As to conditions: mouse, plasma, ICR male mice. As for the experimental part: Purpose: ICR male mice were selected as test animals. The LC-MS/MS method was used to quantitatively determine the drug concentration in the plasma of mice at different time points after intravenous injection or oral administration of the test compound to evaluate the pharmacokinetic characteristics of the test drug in mice.
Experimental materials: ICR mice (male, 15-35g, 5-10 weeks old, Shanghai Xipu-Bikai Experimental Animal Co., Ltd.)
The clear solution of the test compound was injected into ICR mice via the tail vein (without fasting, vehicle: 5% DMSO/10% Solutol/85% Saline) and administered to ICR mice by gavage (fasting for 10-14h). For intravenous administration, blood was collected from the submandibular venous plexus at 0.033, 0.083, 0.25, 0.5, 1, 2, 4, 8, and 24 hrs after administration, placed in an EDTA-K2 anticoagulant tube (Jiangsu Kangjian Medical Supplies Co., Ltd.), mixed, and centrifuged at 2-8° C., 6800 g for 6 minutes to obtain plasma; for oral gavage administration, blood was collected from the submandibular venous plexus at 0.083, 0.25, 0.5, 1, 2, 4, 6, 8, and 24 hrs after administration, placed in an EDTA-K2 anticoagulant tube (Jiangsu Kangjian Medical Supplies Co., Ltd.), mixed, and centrifuged at 2-8° C., 6800 g for 6 minutes to obtain plasma. The blood drug concentration was determined by LC-MS/MS, and the pharmacokinetic software Phoenix WinNonlinTM Version 7.0 (Pharsight, USA) was used to calculate the relevant pharmacokinetic parameters by the non-compartmental linear logarithmic trapezoidal method. The compounds of the present disclosure have good pharmacokinetic characteristics in mice, and the test results of representative compounds are shown in Table 8.

T3 sequence (P10635 whole entry): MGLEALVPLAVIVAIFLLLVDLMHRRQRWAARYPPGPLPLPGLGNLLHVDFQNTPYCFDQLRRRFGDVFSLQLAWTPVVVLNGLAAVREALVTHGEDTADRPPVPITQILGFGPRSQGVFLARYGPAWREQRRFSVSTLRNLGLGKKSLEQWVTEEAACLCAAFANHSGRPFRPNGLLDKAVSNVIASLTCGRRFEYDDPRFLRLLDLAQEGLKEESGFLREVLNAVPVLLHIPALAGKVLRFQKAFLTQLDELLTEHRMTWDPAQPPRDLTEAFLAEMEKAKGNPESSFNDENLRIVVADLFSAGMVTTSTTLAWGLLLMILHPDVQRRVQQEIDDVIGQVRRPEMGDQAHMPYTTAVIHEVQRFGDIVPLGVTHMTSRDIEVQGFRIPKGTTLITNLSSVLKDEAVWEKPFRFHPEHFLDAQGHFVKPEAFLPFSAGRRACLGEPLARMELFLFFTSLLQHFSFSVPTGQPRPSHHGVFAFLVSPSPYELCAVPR
T1 sequence (Q96P20 134-1036 limits assumed): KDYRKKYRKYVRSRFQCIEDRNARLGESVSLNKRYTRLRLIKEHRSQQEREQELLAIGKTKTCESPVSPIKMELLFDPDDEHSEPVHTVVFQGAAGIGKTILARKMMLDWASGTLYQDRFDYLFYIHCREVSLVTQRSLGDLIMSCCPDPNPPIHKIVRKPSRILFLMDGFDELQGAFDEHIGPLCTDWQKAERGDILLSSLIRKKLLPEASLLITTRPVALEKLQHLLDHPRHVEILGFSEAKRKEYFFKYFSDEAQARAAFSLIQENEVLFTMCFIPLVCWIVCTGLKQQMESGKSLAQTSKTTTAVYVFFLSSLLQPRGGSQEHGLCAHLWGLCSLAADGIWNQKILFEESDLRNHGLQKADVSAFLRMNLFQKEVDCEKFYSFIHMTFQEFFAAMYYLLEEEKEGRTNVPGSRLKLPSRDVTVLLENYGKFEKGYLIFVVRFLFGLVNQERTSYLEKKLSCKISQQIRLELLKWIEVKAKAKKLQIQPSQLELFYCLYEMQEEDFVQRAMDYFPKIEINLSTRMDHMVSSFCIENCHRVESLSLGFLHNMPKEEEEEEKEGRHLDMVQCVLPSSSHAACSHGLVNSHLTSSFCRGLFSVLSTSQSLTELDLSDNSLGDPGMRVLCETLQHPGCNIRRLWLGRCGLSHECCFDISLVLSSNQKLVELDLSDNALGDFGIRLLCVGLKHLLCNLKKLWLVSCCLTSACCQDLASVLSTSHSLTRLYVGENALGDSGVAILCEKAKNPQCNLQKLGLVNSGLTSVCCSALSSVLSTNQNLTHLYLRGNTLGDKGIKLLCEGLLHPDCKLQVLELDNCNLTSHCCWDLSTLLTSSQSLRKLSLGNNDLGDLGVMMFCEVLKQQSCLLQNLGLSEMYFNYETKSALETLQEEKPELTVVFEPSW
T2 sequence (P33261 whole entry): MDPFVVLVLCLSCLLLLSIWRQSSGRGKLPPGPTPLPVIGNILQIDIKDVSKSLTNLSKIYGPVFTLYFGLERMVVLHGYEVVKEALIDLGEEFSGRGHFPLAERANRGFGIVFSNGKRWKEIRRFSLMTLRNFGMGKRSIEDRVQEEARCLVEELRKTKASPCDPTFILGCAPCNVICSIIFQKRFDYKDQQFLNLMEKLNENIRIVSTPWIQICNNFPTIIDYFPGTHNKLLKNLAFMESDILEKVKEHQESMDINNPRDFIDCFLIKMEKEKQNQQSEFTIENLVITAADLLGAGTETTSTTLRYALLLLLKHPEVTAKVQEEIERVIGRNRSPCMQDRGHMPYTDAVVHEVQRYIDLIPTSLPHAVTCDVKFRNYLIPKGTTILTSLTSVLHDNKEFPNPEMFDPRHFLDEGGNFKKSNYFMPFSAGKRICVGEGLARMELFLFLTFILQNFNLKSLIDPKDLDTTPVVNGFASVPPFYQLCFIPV

For `CC(=O)N1CCOC[C@H]1CNc1nc2nc(-c3c(C)cc(C(F)(F)F)cc3O)ccc2o1` [Compound 111], the IC50 (in general, the concentration that inhibits the measured activity by half) is not above 0.1 µM in data set [1], more than 30 µM at CYP2C19 and more than 30 µM at CYP2D6. In data set [2] (1 mg/kg, Dosage IV/PO 1/3 mg/kg), this compound came in with a clearance of 19.2 mL/min/kg. In addition, the Vd in data set [2] (1 mg/kg, Dosage IV/PO 1/3 mg/kg, read-out: Vdss) is 1.93 L/kg. For the same compound, the Cmax (as a rule, the maximum level reached in the sampled fluid or tissue) in data set [2] (Dosage IV/PO 1/3 mg/kg) was determined as 1550 ng/mL. Moreover, the bioavailability in data set [2] (Dosage IV/PO 1/3 mg/kg) was found to be 137%. Further, the AUC(0-t) in data set [2] (IV 1 mg/kg, read-out: AUC0-last IV) turned out to be 834 ng·h/mL; in data set [2] (PO 3 mg/kg, read-out: AUC0-last PO), 3440 ng·h/mL. The half-life in data set [2] (IV 1 mg/kg, read-out: T1/2 (IV, h) (converted)) is 2.12 h.
